In patent EP3959200B1, “NEW TRIAZOLE AND TRIAZOLOTHIADIAZINE DERIVATIVES EXERTING CYTOTOXIC AND APOPTOTIC EFFECTS ON A549 CELLS THROUGH AKT INHIBITION” (Anadolu Universitesi, priority 2020, dated 2022):
Values after ≈ are worked out from the molar mass of the structure shown.

Key:
[1] = tested on: kidney cancer (OU-31) cell line; design: concentration or dose not given beside the values; details: cited from earlier work
colon carcinoma (HCT116) = details: HCT116, MTT; read-out: LC50 (the source's name); cited from earlier work
[2] = tested on: breast adenocarcinoma (MCF-7); details: MCF-7, MTT; read-out: LC50 (the source's name); cited from earlier work
[3] = tested on: lung cancer (H-157) cell line; details: cited from earlier work
[4] = tested on: kidney fibroblast (BHK-21) cells; details: cited from earlier work
[5] = tested on: human epithelial cervical carcinoma (HeLa) cells; details: MTT; cited from earlier work
K562 cell line = details: cited from earlier work
[6] = tested on: human lung adenocarcinoma (A549); details: cited from earlier work
[7] = tested on: breast adenocarcinoma (MCF-7); details: cited from earlier work
[8] = tested on: ovarian carcinoma (SKOV3); details: cited from earlier work
[9] = tested on: A549 human lung adenocarcinoma cells; assay: MTT cytotoxicity assay; type: cell-based; details: for IC50: Homo sapiens, A549, read-out: IC50 values A549 cell line; for SI values: SI= IC50 for NIH/3T3 cell line / IC50 for A549 cell line
Experimental: (§1) In order to be used from this stock, the concentrations ranging from 0.12 to 500 µg/mL (with the highest DMSO ratio of 0.1%) were prepared.
A549 human lung adenocarcinoma cells (ATCC® CCL-185™) were grown in RPMI 1640 medium supplemented with 10% fetal bovine serum, 1% penicillin/streptomycin, in an incubator with carbon dioxide, in a culture medium at 37°C at 95% relative humidity.
(§2) MTT protocol was applied to determine cell viability. […] At the end of the incubation period, 20 µL of MTT dye (5 mg/mL) was added into each well, and the cells were incubated for an additional 4 hours at 37°C. After this process, MTT dye was removed from the cells, 200 µL of DMSO was added to each well and left to incubate for 10 minutes. Color change was detected at 540 nm in the ELx808-IU Bio-Tek plate reader. Inhibition% values were determined for each concentration of compounds. Inhibitory concentration 50 (IC50) values of the compounds were calculated by drawing a dose-response curve with their concentrations against these values. All experiments were carried out in triplicate. The results were given as mean±standard deviation. Inhibition% = 100−[(ODtest compound−ODblank/ODsolvent control−ODblank)×100] [formula]
Selective index (SI) values were determined using the following formula. SI […] IC50 for NIH/3T3 cell line/IC50 for A549 cell line [formula]

A549 cells = assay: FITC Annexin V/PI apoptosis detection by flow cytometry; type: cell-based, human; details: for Early apoptotic cells % / Late apoptotic cells % / Necrosis % / apoptotic activity / Viable cells%: at IC50 concentrations; for apoptotic activity: early plus late apoptotic cells; for apoptosis induction: flow cytometry, result in words
Experimental: The cells incubated with the compounds were centrifuged at 400 × g for 5 minutes in labeled tubes and washed twice with 1xPBS. Then, the cells were suspended in 1×Annexin-V binding solution at 1×10^6 cells/mL and 100 µL of this cell solution was taken and transferred to tubes. The cells were treated with 5 µL Annexin V FITC and 5 µL of propidium iodide (PI) dyes. Then, the cells were kept at room temperature in the dark for 15 minutes to allow the dye to bind. 400 µL of 1×Annexin-V binding cell solution was transferred to flow cytometry tubes and the amount of early and late apoptotic cells was determined relative to the positive control using the BD FACSAria flow cytometer FACSDiva version 6.1.1 software.

Akt = Akt activity assay (Akt colorimetric in cell ELISA); type: cell-based, human; details: for Inhibition % / IC50 value (Akt inhibitory effects): 24 hours; for Akt inhibitory effects: result in words
Experimental: Briefly, the media was removed from the wells and 100 µL of 4% formaldehyde was added. The plate was incubated for 15 minutes in a fume hood. Formaldehyde was removed and the plate was washed twice with 1X […] solution (TBS) to 100 µL/well. 1X TBS was removed and 100 µL of 1X permeabilization buffer was added to each well and left at room temperature for 15 minutes. After removing the 1X permeabilization buffer, the wells were washed once with 100 µL of 1X TBS. 1X TBS was removed and 100 µL of the quenching solution was added to the wells and left at room temperature for 20 minutes. Then, this solution was removed. The plate was washed once with 1X TBS, 100 µL of blocking buffer was added to the wells and left at room temperature for 30 minutes. At the end of this period, the blocking buffer was removed and 50 µL of primary antibody was added to the wells. The plate was closed with a sealer and incubated overnight at 4°C. The primary antibody was removed and plate wells were washed three times with 100 µL of wash buffer. After removing the wash buffer, 100 µL of diluted horseradish peroxidase (HRP) conjugate was added to the wells. It was incubated for 30 minutes at room temperature. After removing this conjugate, 100 µL of 3,3',5,5'-tetramethylbenzidine (TMB) stop solution was added and absorbance was measured at 450 nm for 30 minutes. The experiment was carried out in triplicate. The values of the blank wells were subtracted from the values of the untreated control and treated cells. The Akt activity% was determined as the relative absorbance of treated versus untreated control cells.

[10] = tested on: NIH/3T3 mouse embryonic fibroblast cells; assay: MTT cytotoxicity assay; type: cell-based; details: Mus musculus, NIH3T3, 24 hours, read-out: IC50 values NIH/3T3 cell line
Experimental: as §1
NIH/3T3 mouse embryonic fibroblast cells (ATCC® CRL-1658™) were grown in DMEM medium supplemented with 10% fetal bovine serum, 1% penicillin/streptomycin, in an incubator with carbon dioxide, in a culture medium at 37°C at 95% relative humidity.
as §2

In the case of `O=C(CSc1nnc2n1N=C(c1ccc(Br)cc1)CS2)c1ccc(Br)cc1` [1-(4-bromophenyl)-2-((6-(4-bromophenyl)-7H-[1,2,4]triazolo[3,4-b][1,3,4]thiadiazine-3-yl)thio)ethanone], the growth [1] is listed as 46.76% and the inhibition [1] is listed as 53.24%.

In the case of `O=C(CSc1nnc2n1N=C(c1ccc(F)cc1)CS2)c1ccc(F)cc1` [1-(4-fluorophenyl)-2-((6-(4-fluorophenyl)-7H-[1,2,4]triazolo[3,4-b][1,3,4]thiadiazine-3-yl)thio)ethanone], the growth [1] is listed as 47.42% and the inhibition [1] is listed as 52.58%.

In the case of `S=C(Nc1ccc(Oc2ccccc2)cc1)Nc1nc(-c2nnc(S)n2-c2ccc(Oc3ccccc3)cc2)cs1` [1-[4-(5-Mercapto-4-(4-phenoxyphenyl-4H-1,2,4-triazole-3-yl)thiazole-2-yl]-3-(4-phenoxyphenyl)thiourea], the CC50 (colon carcinoma (HCT116)) is given as 23.5 µM and the CC50 [2] is given as 17.4 µM.

For `O=c1oc2ccccc2cc1-c1nnc2n1N=C(c1ccc(-c3ccccc3)cc1)CS2` [3-(6-(Biphenyl-4-yl)-7H-[1,2,4]triazolo[3,4-b][1,3,4]-thiadiazine-3-yl)-2H-chromen-2-one], the IC50 [3] is given as 1.01 ± 0.12 µM.

In the case of `Cc1ccc(C2=Nn3c(nnc3-c3ccncc3)SC2)cc1` [3-(pyridine-4-yl)-6-(p-tolyl)-7H-[1,2,4]triazolo[3,4-b][1,3,4]thiadiazine], the inhibition [4] is listed as 72.6%.

In the case of `CS(=O)(=O)c1ccc(Cc2n[nH]c(=S)n2N=Cc2c(F)cccc2Cl)cc1` [4-{ [(2-chloro-6-fluorophenyl)methylene]amino}-5-[4-(methylsulfonyl)benzyl]-2,4-dihydro-3H-1,2,4-triazole-3-thione], the EC50 [5] is given as 25 µM.

For `S=c1[nH]c(C23CC4CC(CC(C4)C2)C3)nn1CNc1ccccc1Cl` [5-(adamantan-1-yl)-2-[((2-chlorophenyl)amino)methyl]-2,4-dihydro-3H-1,2,4-triazole-3-thione], the IC50 (K562 cell line) is listed as 27.1 ± 5.35 µM.

In the case of `Fc1ccccc1NCn1nc(C23CC4CC(CC(C4)C2)C3)[nH]c1=S` [5-(adamantan-1-yl)-2-[((2-fluorophenyl)amino)methyl]-2,4-dihydro-3H-1,2,4-triazole-3-thione], the IC50 (K562 cell line) is given as 27.7 ± 2.46 µM.

In the case of `Cc1ccccc1NCn1nc(C23CC4CC(CC(C4)C2)C3)[nH]c1=S` [5-(adamantan-1-yl)-2-[(o-tolylamino)methyl]-2,4-dihydro-3H-1,2,4-triazole-3-thione], the IC50 (K562 cell line) is given as 25.4 ± 0.89 µM.

For `COc1cccc(C2=Nn3c(nnc3-c3ccncc3)SC2)c1` [6-(3-methoxyphenyl)-3-(pyridine-4-yl)-7H-[1,2,4]triazolo[3,4-b][1,3,4]thiadiazine], the inhibition [4] is listed as 73.3%.

For `COc1cc(-c2nnc3n2N=C(c2ccc(C)cc2)CS3)cc(OC)c1OC` [6-(p-tolyl)-3-(3,4,5-trimethoxyphenyl)-7H-[1,2,4]triazolo[3,4-b][1,3,4]thiadiazine], the IC50 [6] is given as 0.6 ± 0.02 µM, the IC50 [7] is given as 2.75 ± 0.05 µM and the IC50 [8] is given as 3.43 ± 0.33 µM.

With `N.N.[Cl][Pt][Cl]` [Cisplatin, reference compound] the “IC50 values A549 cell line” value ([9]; MTT, 24 hours) was 11.50 ± 0.71 µg/mL, the “Early apoptotic cells %” value (A549 cells) was 1.8% and the “Late apoptotic cells %” value (A549 cells) was 5.8%. It also gave a Necrosis % (A549 cells) of 7.0%, an apoptotic activity (A549 cells) of 7.6% and an Inhibition % (Akt; 5.75 µg/mL) of 40.70±1.62%. For the same molecule, the Inhibition % (Akt; 11.50 µg/mL) was 97.89±0.86%, the “IC50 value (Akt inhibitory effects)” value (Akt) was 7.00 ± 0.50 µg/mL and the IC50 (K562 cell line) was 5.45 ± 0.18 µM. The IC50 [3] was 1.31 ± 0.03 µM.

Work on `Nn1c(CCc2cccnc2)nnc1SCC(=O)Nc1nc2ccc(F)cc2s1` [Compound 3c, 2-((4-Amino-5-(2-(pyridine-3-yl)ethyl)-4H-1,2,4-triazole-3-yl)thio)-N-(6-fluorobenzothiazole-2-yl)acetamide] yielded an IC50 ([9]; MTT, 24 hours) of 0.27 ± 0.02 µg/mL (≈ 0.629 µM), an SI values [9] of 629.63 and an IC50 [10] of 170 ± 17.3 µg/mL (≈ 396 µM). The “Early apoptotic cells %” value (A549 cells) was 0.5%, the “Late apoptotic cells %” value (A549 cells) was 3.7% and the Necrosis % (A549 cells) was 4.0%. The Viable cells% (A549 cells) was 91.8%, the Inhibition % (Akt; 0.07 µg/mL) was 15.28±5.56% and the Inhibition % (Akt; 0.14 µg/mL) was 36.64±13.39%. For the same molecule, the Inhibition % (Akt; 0.27 µg/mL) was 39.84±6.49% and the Akt inhibitory effects (Akt) was “did not show significant Akt inhibitory effects”.

With `Nn1c(CCc2cccnc2)nnc1SCC(=O)Nc1nc2ccc(Cl)cc2s1` [Compound 3d, 2-((4-Amino-5-(2-(pyridine-3-yl)ethyl)-4H-1,2,4-triazole-3-yl)thio)-N-(6-chlorobenzothiazole-2-yl)acetamide] the IC50 ([9]; MTT, 24 hours) was 0.34 ± 0.02 µg/mL (≈ 0.762 µM), the SI values [9] was 14.41 and the IC50 [10] was 4.9 ± 0.36 µg/mL (≈ 11 µM). The “Early apoptotic cells %” value (A549 cells) was 1.8%, the “Late apoptotic cells %” value (A549 cells) was 6.3% and the Necrosis % (A549 cells) was 4.8%. For the same molecule, the Viable cells% (A549 cells) was 87.2%, the apoptotic activity (A549 cells) was 8.1% and the apoptosis induction (A549 cells) was “induce apoptosis”. For the same molecule, the Inhibition % (Akt; 0.98 µg/mL) was 80.23±7.70%, the Inhibition % (Akt; 1.95 µg/mL) was 76.94±10.75% and the Inhibition % (Akt; 3.90 µg/mL) was 100.00%. For the same molecule, the “IC50 value (Akt inhibitory effects)” value (Akt) was 0.19 ± 0.05 µg/mL (≈ 0.426 µM).

With `Cc1ccc2nc(NC(=O)CSc3nnc(CCc4cccnc4)n3N)sc2c1` [Compound 3f, 2-((4-Amino-5-(2-(pyridine-3-yl)ethyl)-4H-1,2,4-triazole-3-yl)thio)-N-(6-methylbenzothiazole-2-yl)acetamide] the IC50 ([9]; MTT, 24 hours) was 6.5 ± 0.5 µg/mL (≈ 15.3 µM), the SI values [9] was over 76.92 and the IC50 [10] was over 500 µg/mL. For the same molecule, the “Early apoptotic cells %” value (A549 cells) was 1.9%, the “Late apoptotic cells %” value (A549 cells) was 7.7% and the Necrosis % (A549 cells) was 5.8%. For the same molecule, the Viable cells% (A549 cells) was 84.6%, the apoptotic activity (A549 cells) was 9.6% and the apoptosis induction (A549 cells) was “induce apoptosis”. For the same molecule, the Inhibition % (Akt; 3.25 µg/mL) was 37.59±9.46%, the Inhibition % (Akt; 6.50 µg/mL) was 40.29±11.27% and the Akt inhibitory effects (Akt) was “did not show significant Akt inhibitory effects”.

In the case of `COc1ccc2nc(NC(=O)CSc3nnc(CCc4cccnc4)n3N)sc2c1` [Compound 3g, 2-((4-Amino-5-(2-(pyridine-3-yl)ethyl)-4H-1,2,4-triazole-3-yl)thio)-N-(6-methoxybenzothiazole-2-yl)acetamide], the IC50 ([9]; MTT, 24 hours) is reported as 0.48 ± 0.03 µg/mL (≈ 1.09 µM), the IC50 [10] is reported as over 500 µg/mL and the “Early apoptotic cells %” value (A549 cells) is reported as 0.9%. For the same molecule, the “Late apoptotic cells %” value (A549 cells) was 5.5%, the Necrosis % (A549 cells) was 9.1% and the Viable cells% (A549 cells) was 84.5%. For the same molecule, the apoptosis induction (A549 cells) was “induce apoptosis”, the Inhibition % (Akt; 1.95 µg/mL) was 26.42±4.59% and the Inhibition % (Akt; 3.90 µg/mL) was 88.87±5.31%. The “IC50 value (Akt inhibitory effects)” value (Akt) was 2.60 ± 0.10 µg/mL (≈ 5.89 µM).

For `COc1cc([C@@H]2c3cc4c(cc3[C@@H](O[C@@H]3O[C@@H]5CO[C@@H](C)O[C@H]5[C@H](O)[C@H]3O)[C@H]3COC(=O)[C@H]23)OCO4)cc(OC)c1O` [etoposide], the IC50 [6] is given as 2.99 ± 0.22 µM, the IC50 [7] is given as 1.89 ± 0.16 µM and the IC50 [8] is given as 2.3 ± 0.12 µM.
